Assay type in all cases: biochemical
Test [1] relates to alkaline phosphatase (AP). Description: Chemiluminescent detection of alkaline phosphatase with acridan phosphate and cationic aromatic compound (CAC). Conditions: for S at 36 min (plateau intensity): 21 mM CAC in DMSO diluted 1:1000 into compound 5 in 0.1 M tris pH 8.8.
Test [2] has as its system alkaline phosphatase (AP). Description: Chemiluminescent detection of alkaline phosphatase with acridan phosphate and surfactant enhancer. The following applies: for Rel. (S/B normalized to the results obtained with no enhancer) / S/B (ratio of light intensities with AP and with no enzyme): acridan 1 with 10^−16 mol of AP, each surfactant at the concentration producing the greatest enhancement.

A further test deals with acid phosphatase (AcP). Description: Chemiluminescent detection of acid phosphatase and inhibition by tartrate. As to the method: The quenching of emission was not due to a reduction of the pH since addition of 10 μL of citrate buffer caused only a 25% reduction in light intensity.
The mark [3] stands for this setting: 4×10^−16 mol AP, room temperature.

20 compounds from patent US6635437B2, “Compounds, compositions and methods for generating chemiluminescence with phosphatase enzymes” (Lumigen, Inc., priority 1996, dated 2003) can be followed below.

As to “(E,Z)-9-(Phenoxy)phosphoryloxymethylidene)-12-methylbenz[c]acridan, disodium salt [Compound 6]”, in test [1] (setting [3]), the “S at 36 min (plateau intensity)” value stood at 72.3.
Regarding “(E,Z)-9-(Phenoxy)phosphoryloxymethylidene)-3-methoxy-10-methylacridan, disodium salt [Compound 3]”, the “S at 36 min (plateau intensity)” value in test [1] (setting [3]) is reported as 5963.
Consider “9-(2,6-Dimethylphenylthiophosphoryloxymethylidene)-10-methylacridan. disodium salt [Compound 9]”, for which, in test [1] (setting [3]), the “S at 36 min (plateau intensity)” value amounted to 781.
For the compound “9-(2′,2′,2′-Trifluoroethylthiophosphoryloxymethylidene)-10-methylacridan, disodium salt [Compound 11]”, the “S at 36 min (plateau intensity)” value in test [1] (setting [3]) came out at 9.3.
For the compound “polyoxyethylene(20)sorbitan monolaurate [Surfactant F]”, in test [2], the “Rel. (S/B normalized to the results obtained with no enhancer)” value was 8.6; the “S/B (ratio of light intensities with AP and with no enzyme)” value is recorded as 120. Also, the “effect on duration of chemiluminescence” value in test [1] (TWEEN 20 1.0% to 0.001%, Reagent A with 21 μM lucigenin, lacking Na2SO3, 4×10^−16 mol AP) is reported as “effective in extending the duration of chemiluminescence at or near maximum intensity”.
`CCCCCCCC[P+](CCCCCCCC)(CCCCCCCC)Cc1ccc(C[P+](CCCC)(CCCC)CCCC)cc1.[Cl-].[Cl-]` [Surfactant E, 1-trioctylphosphoniummethyl-4-tributylphosphonium-methylbenzene dichloride]: in test [2], the “Rel. (S/B normalized to the results obtained with no enhancer)” value was 11.6; the “S/B (ratio of light intensities with AP and with no enzyme)” value is on record as 162.
Turning to “9-(4-Methoxyphenylthiophosphoryloxymethylidene)-10-methylacridan, disodium salt [Compound 8]”, the “S at 36 min (plateau intensity)” value in test [1] (setting [3]) amounted to 19.1.
On the same count and under the same terms, the result for “9-(Phenylthiophosphoryloxymethylidene)-2,7-difluoro-10-methylacridan, disodium salt [Compound 10]” reads 21.1.
Regarding `CN1c2ccccc2C(C(=O)Oc2ccccc2)c2ccccc21` [phenyl 10-methylacridan-9-carboxylate, reference compound], the “effect of addition of AP on chemiluminescence” value in test [2] (composition as Example 14 with the ester in place of 1) is “no effect”.
Regarding “9-(4-Fluorophenylthiophosphoryloxymethylidene)-10-methylacridan, disodium salt [Compound 7]”, the “time to stable plateau of chemiluminescence intensity” value in test [1] (0.66 mM 7, 6.4 μM lucigenin, SDS, Na2SO3, TWEEN 20, tris pH 8.8, 8×10^−16 mol AP, room temperature) is given as “under 5 sec”. Further, the “S at 36 min (plateau intensity)” value in test [1] (setting [3]) turned out to be 61.6.
As for `CCCCCCCCCCCCCCCC[N+](C)(C)C.[Br-]` [Surfactant I, cetyltrimethylammonium bromide], in test [2], the “Rel. (S/B normalized to the results obtained with no enhancer)” value was found to be 1.7; the “S/B (ratio of light intensities with AP and with no enzyme)” value is on record as 24.
For “(E, Z)-9-(2,6-Dimethylphenoxy)phosphoryloxymethylidene)-3-chloro-10-methylacridan, disodium salt [Compound 4]”, the “S at 36 min (plateau intensity)” value in test [1] (setting [3]) was found to be 4645.
Turning to `C[n+]1c2ccccc2c(-c2c3ccccc3[n+](C)c3ccccc23)c2ccccc21.O=[N+]([O-])[O-].O=[N+]([O-])[O-]` [CAC 1, N,N′-dimethylbiacridinium dinitrate, reference compound], the “effect of lucigenin on light intensity” value in test [1] (6.4 μM lucigenin, 0.66 mM 5, 0.1 M tris pH 8.8, 8×10^−16 mol AP, 25° C.) is “much higher light intensity”. The “signal (S) versus control without lucigenin” value in test [1] (6.4 mM to 6.4 nM lucigenin, 0.66 mM 5, tris pH 8.8, 4×10^−16 mol AP, 3.5 min, room temperature) is listed as “higher signal (S) than the control”.
With `O=S([O-])[O-].[Na+].[Na+]` [Na2SO3, sodium sulfite], the “background signal (B) in the absence of AP versus control” value in test [1] (Na2SO3 1.0 mg/mL to 1.0 μg/mL in Reagent A) is “lower background signal (B)”. Further, the “signal (S) versus control” value in test [1] (Na2SO3 1.0 mg/mL to 1.0 μg/mL in Reagent A, 4×10^−16 mol AP, 3.5 min, room temperature) is reported as “higher signal (S) than the control”.
Turning to `O=C(O)C(O)C(O)C(=O)O` (stereo not shown) [tartrate, reference compound], the “effect on light emission (inhibition of enzyme activity)” value with acid phosphatase (AcP) (addition of 5 μL of 0.04 M tartrate in citrate buffer (0.09 M, pH 4.8)) is reported as “complete extinction of light emission”.
For the compound “1-trioctylphosphoniummethyl-4-tributylammonium-methylbenzene, mixed bromide chloride salt [Surfactant G]”, in test [2], the “Rel. (S/B normalized to the results obtained with no enhancer)” value is reported as 4.5; the “S/B (ratio of light intensities with AP and with no enzyme)” value is 63.
In the case of `CCCCCCCC[N+](CCCCCCCC)(CCCCCCCC)Cc1ccc(C[N+](CCCC)(CCCC)CCCC)cc1.[Cl-].[Cl-]` [Surfactant J, 1-trioctylammoniumnmethyl-4-tributylammoniummethylbenzene dichloride], in test [2], the “Rel. (S/B normalized to the results obtained with no enhancer)” value is 1.2; the “S/B (ratio of light intensities with AP and with no enzyme)” value came to 17.
With `CCCCCCCCCCCCOS(=O)(=O)[O-].[Na+]` [Surfactant H, sodium dodecyl sulfate], in test [2], the “Rel. (S/B normalized to the results obtained with no enhancer)” value was 1.9; the “S/B (ratio of light intensities with AP and with no enzyme)” value came to 26. The “rise to peak signal versus control without SDS” value in test [1] (SDS 10 mg/mL to 10 μg/mL, 0.66 mM 5, tris pH 8.8, 4×10^−16 mol AP, room temperature) was “faster rise to peak signal”.
With “bovine serum albumin: the protein bovine serum albumin, added to the detection reagent”, in the test on acid phosphatase (AcP) (added to the detection reagent at 0.1%), the “effect on duration of light emission” value was “prolonged the duration of light emission significantly”.
On to “9-(3,5-Dimethylphenoxy)phohosphoryloxymethylidene)-10-methylacridan. disodium salt [Compound 2]”, for which the “S at 36 min (plateau intensity)” value in test [1] (setting [3]) turned out to be 45.3.
